# Patent US20220241260A9, “Pharmaceutical Compositions Of Metabotropic Glutamate 5 Receptor (MGLU5) Antagonists” (F. HOFFMANN-LA ROCHE AG, priority 2010, published 2022)
# Experiment: BCS classification
# Assay type: physicochemical
# Conditions: because of pH dependent solubility in physiological range
structure (smiles),measurement,value
"Cc1nc(C#Cc2ccnc(Cl)c2)c(C)n1-c1ccc(F)cc1 [2-Chloro-4-[1-(4-fluoro-phenyl)-2,5-dimethyl-1H-imidazol-4-ylethynyl]-pyridine]",BCS class,BCS class 2
